Experimental data reported in patent US9878982B2, “Pyridine derivatives and anti-mycobacterial use thereof” (priority 2014, dated 2018).
Converted amounts (≈) assume the structure as drawn.

What was measured:
M. tuberculosis H37Rv = test: In vitro efficacy test using the H37Rv strain, Microplate Alamar Blue Assay (MABA) MIC; type: cell-based, Mycobacterium tuberculosis; settings: Mycobacterium tuberculosis, H37RV, aerobic; 7H9 medium, Alamar Blue; read-out: M. tuberculosis H37Rv MABA (MIC)
[1] = Hela cell cytotoxicity (CC50); settings: human, HeLa cells (human cervical cancer cells), CC50_Hela, half of the toxic concentration
[2] = system: Mycobacterium smegmatis strain ATCC19420; test: In vitro efficacy test using Mycobacterium smegmatis strain ATCC19420 (MIC); type: cell-based; settings: Mycolicibacterium smegmatis, ATCC19420, 72 h, CA-MHB + 0.02% Tween 80, 30° C., read after 72 hours
M. tuberculosis H37R = test: microbe, parasite or virus in culture; type: cell-based, Mycobacterium tuberculosis; settings: Mycobacterium tuberculosis, H37R; read-out: M. tuberculosis H37R LORA (MIC)
Vero Cell = test: Vero cell cytotoxicity (IC50); type: cell-based; settings: Chlorocebus sabaeus, Vero, African green monkey kidney cells

Compound	MIC (M. tuberculosis H37Rv)	CC50 [1]	MIC [2]	MIC (M. tuberculosis H37R)	IC50 (Vero Cell)
COc1ncc(-c2nccs2)cc1C(c1ccccc1)C(O)(CCN(C)C)c1cccc2ccccc12 (stereo not drawn) [Compound 169, 4-(dimethylamino)-1-(2-methoxy-5-(thiazol-2-yl)pyridin-3-yl)-2-(naphthalen-1-yl)-1-phenylbutan-2-ol]	1.73 µg/mL (≈ 3.39 µM)	19.3 µg/mL (≈ 37.8 µM)	0.25 µg/mL	4.95 µg/mL (≈ 9.71 µM)	25.9 µg/mL (≈ 50.7 µM)
COc1ncc(-c2cncs2)cc1C(c1ccccc1)C(O)(CCN(C)C)c1cccc2ccccc12 (stereo not drawn) [Compound 171, 4-(dimethylamino)-1-(2-methoxy-5-(thiazol-5-yl)pyridin-3-yl)-2-(naphthalen-1-yl)-1-phenylbutan-2-ol]	1.7 µg/mL (≈ 3.34 µM)	14.3 µg/mL (≈ 28.2 µM)	0.125 µg/mL	2.86 µg/mL (≈ 5.61 µM)	25.4 µg/mL (≈ 49.7 µM)
COc1ncc(C(C)C)cc1C(c1ccccc1)C(O)(CCN(C)C)c1cccc2ccccc12 (stereo not drawn) [Compound 175, 4-(dimethylamino)-1-(5-isopropyl-2-methoxypyridin-3-yl)-2-(naphthalen-1-yl)-1-phenylbutan-2-ol]	1.42 µg/mL (≈ 3.03 µM)	27.6 µg/mL (≈ 59 µM)	0.25 µg/mL	2.83 µg/mL (≈ 6.04 µM)	> 50 µg/mL
COc1ncc(C(C)(C)C)cc1C(c1ccccc1)C(O)(CCN(C)C)c1cccc2ccccc12 (stereo not drawn) [Compound 177, 1-(5-tert-butyl-2-methoxypyridin-3-yl)-4-dimethylamino-2-(naphthalen-1-yl)-1-phenylbutan-2-ol]	1.74 µg/mL (≈ 3.6 µM)	> 64 µg/mL	0.125 µg/mL	1.81 µg/mL (≈ 3.75 µM)	27.6 µg/mL (≈ 57.2 µM)
COc1ncc(-c2ccoc2)cc1C(c1ccccc1)C(O)(CCN(C)C)c1cccc2ccccc12 (stereo not drawn) [Compound 178, 4-(dimethylamino)-1-(5-(furan-3-yl)-2-methoxypyridin-3-yl)-2-(naphthalen-1-yl)-1-phenylbutan-2-ol]	0.78 µg/mL (≈ 1.58 µM)	25.8 µg/mL (≈ 52.3 µM)	0.0312 µg/mL	0.88 µg/mL (≈ 1.79 µM)	25.5 µg/mL (≈ 51.8 µM)
COc1ncc(-c2ccco2)cc1C(c1ccccc1)C(O)(CCN(C)C)c1cccc2ccccc12 (stereo not drawn) [Compound 183, 4-(dimethylamino)-1-(5-(furan-2-yl)-2-methoxypyridin-3-yl)-2-(naphthalen-1-yl)-1-phenylbutan-2-ol]	0.5 µg/mL (≈ 1.01 µM)	> 64 µg/mL	≤ 0.0625 µg/mL	1.33 µg/mL (≈ 2.7 µM)	24.5 µg/mL (≈ 49.8 µM)
COc1cccc(C(c2cc(-c3ccccc3)cnc2OC)C(O)(CCN(C)C)c2cc(F)cc(F)c2)c1OC (stereo not drawn) [Compound 207, 2-(3,5-difluorophenyl)-1-(2,3-dimethoxyphenyl)-4-(dimethylamino)-1-(2-methoxy-5-phenylpyridin-3-yl)butan-2-ol]	0.96 µg/mL (≈ 1.75 µM)	10.3 µg/mL (≈ 18.7 µM)	≤ 0.0625 µg/mL	0.99 µg/mL (≈ 1.8 µM)	25.7 µg/mL (≈ 46.8 µM)
COc1cccc(C(c2cc(-c3ccccc3)cnc2OC)C(O)(CCN(C)C)c2cccc(Cl)c2)c1OC (stereo not drawn) [Compound 209, 2-(3-chlorophenyl)-1-(2,3-dimethoxyphenyl)-4-(dimethylamino)-1-(2-methoxy-5-phenylpyridin-3-yl)butan-2-ol]	0.89 µg/mL (≈ 1.63 µM)	13.3 µg/mL (≈ 24.3 µM)	0.0312 µg/mL	0.84 µg/mL (≈ 1.54 µM)	27.3 µg/mL (≈ 49.9 µM)
COc1cccc(C(c2cc(-c3ccccc3)cnc2OC)C(O)(CCN(C)C)c2cc(Cl)cc(Cl)c2)c1OC (stereo not drawn) [Compound 213, 2-(3,5-dichlorophenyl)-1-(2,3-dimethoxyphenyl)-4-(dimethylamino)-1-(2-methoxy-5-phenylpyridin-3-yl)butan-2-ol]	0.125 µg/mL (≈ 0.215 µM)	> 64 µg/mL	≤ 0.0625 µg/mL	0.46 µg/mL (≈ 0.791 µM)	25.2 µg/mL (≈ 43.3 µM)
CCOc1ncc(-c2ccccc2)cc1C(c1ccccc1)C(O)(CCN(C)C)c1cccc2ccccc12 (stereo not drawn) [Compound 217, 4-(dimethylamino)-1-(2-ethoxy-5-phenylpyridin-3-yl)-2-(naphthalen-1-yl)-1-phenylbutan-2-ol]	0.41 µg/mL (≈ 0.794 µM)	> 64 µg/mL	≤ 0.0625 µg/mL	1.66 µg/mL (≈ 3.21 µM)	> 32 µg/mL
COc1cccc(C(c2cc(-c3ccccc3)cnc2OC)C(O)(CCN(C)C)c2ccccc2)c1F (stereo not drawn) [Compound 226, 4-(dimethylamino)-1-(2-fluoro-3-methoxyphenyl)-1-(2-methoxy-5-phenylpyridin-3-yl)-2-phenylbutan-2-ol]	0.44 µg/mL (≈ 0.879 µM)	13.1 µg/mL (≈ 26.2 µM)	0.125 µg/mL	0.97 µg/mL (≈ 1.94 µM)	25.5 µg/mL (≈ 50.9 µM)
COc1ccc(C(c2cc(-c3ccccc3)cnc2OC)C(O)(CCN(C)C)c2ccccc2)cc1 (stereo not drawn) [Compound 237, 4-(dimethylamino)-1-(2-methoxy-5-phenylpyridin-3-yl)-1-(4-methoxyphenyl)-2-phenylbutan-2-ol]	1.89 µg/mL (≈ 3.92 µM)	15.6 µg/mL (≈ 32.4 µM)	0.5 µg/mL	3.07 µg/mL (≈ 6.36 µM)	24.3 µg/mL (≈ 50.3 µM)
COc1ncc(-c2csc(Cl)c2)cc1C(c1ccccc1)C(O)(CCN(C)C)c1cccc2ccccc12 (stereo not drawn) [Compound 245, 1-(5-(5-chlorothiophen-3-yl)-2-methoxypyridin-3-yl)-4-(dimethylamino)-2-(naphthalen-1-yl)-1-phenylbutan-2-ol]	0.86 µg/mL (≈ 1.58 µM)	> 64 µg/mL	≤ 0.0625 µg/mL	1.39 µg/mL (≈ 2.56 µM)	> 32 µg/mL
COc1ncc(-c2ccsc2Cl)cc1C(c1ccccc1)C(O)(CCN(C)C)c1cccc2ccccc12 (stereo not drawn) [Compound 251, 1-(5-(2-chlorothiophen-3-yl)-2-methoxypyridin-3-yl)-4-(dimethylamino)-2-(naphthalen-1-yl)-1-phenylbutan-2-ol]	0.64 µg/mL (≈ 1.18 µM)	> 64 µg/mL	0.25 µg/mL	1.39 µg/mL (≈ 2.56 µM)	> 32 µg/mL
COc1ncc(C2CCSCC2)cc1C(c1ccccc1)C(O)(CCN(C)C)c1cccc2ccccc12 (stereo not drawn) [Compound 255, 4-(dimethylamino)-1-(2-methoxy-5-(tetrahydro-2H-thiopyran-4-yl)pyridin-3-yl)-2-(naphthalen-1-yl)-1-phenylbutan-2-ol]	0.48 µg/mL (≈ 0.911 µM)	> 64 µg/mL	0.25 µg/mL	8.33 µg/mL (≈ 15.8 µM)	> 32 µg/mL
COc1ncc(C2=CCSCC2)cc1C(c1ccccc1)C(O)(CCN(C)C)c1cccc2ccccc12 (stereo not drawn) [Compound 259, 1-(5-(3,6-dihydro-2H-thiopyran-4-yl)-2-methoxypyridin-3-yl)-4-(dimethylamino)-2-(naphthalen-1-yl)-1-phenylbutan-2-ol]	0.32 µg/mL (≈ 0.61 µM)	> 64 µg/mL	0.125 µg/mL	4.33 µg/mL (≈ 8.25 µM)	> 32 µg/mL
CC#Cc1cnc(OC)c(C(c2ccccc2)C(O)(CCN(C)C)c2cccc3ccccc23)c1 (stereo not drawn) [Compound 263, 4-(dimethylamino)-1-(2-methoxy-5-prop-1-ynyl-3-pyridyl)-2-(1-naphthyl)-1-phenylbutan-2-ol]	1.38 µg/mL (≈ 2.97 µM)	> 64 µg/mL	0.5 µg/mL	2.08 µg/mL (≈ 4.48 µM)	> 32 µg/mL
COc1ncc(N2CCOCC2)cc1C(c1ccccc1)C(O)(CCN(C)C)c1cccc2ccccc12 (stereo not drawn) [Compound 269, 4-(dimethylamino)-1-(2-methoxy-5-morpholinopyridin-3-yl)-2-(naphthalen-1-yl)-1-phenylbutan-2-ol]	5.64 µg/mL (≈ 11 µM)	17.4 µg/mL (≈ 34.1 µM)	0.25 µg/mL	6.3 µg/mL (≈ 12.3 µM)	> 32 µg/mL
COc1ncc(-c2ccc(Cl)cc2)cc1C(c1ccccc1)C(O)(CCN(C)C)c1cc(F)cc(F)c1 (stereo not drawn) [Compound 280, 1-(5-(4-chlorophenyl)-2-methoxypyridin-3-yl)-2-(3,5-difluorophenyl)-4-dimethylamino-1-phenylbutan-2-ol]	0.04 µg/mL (≈ 0.0765 µM)	35 µg/mL (≈ 66.9 µM)	0.0156 µg/mL	0.16 µg/mL (≈ 0.306 µM)	> 32 µg/mL
COc1ncc(-c2ccc(C(F)(F)F)cc2)cc1C(c1ccccc1)C(O)(CCN(C)C)c1cccc2ccccc12 (stereo not drawn) [Compound 285, 4-(dimethylamino)-1-(2-methoxy-5-(4-(trifluoromethyl)phenyl)pyridin-3-yl)-2-(naphthalen-1-yl)-1-phenylbutan-2-ol]	0.96 µg/mL (≈ 1.68 µM)	> 64 µg/mL	0.0156 µg/mL	0.63 µg/mL (≈ 1.1 µM)	> 32 µg/mL
COc1ncc(-c2ccc(Cl)cc2)cc1C(c1ccccc1)C(O)(CCN(C)C)c1cccc(F)c1F (stereo not drawn) [Compound 287, 1-(5-(4-chlorophenyl)-2-methoxy-3-pyridyl)-2-(2,3-difluorophenyl)-4-dimethylamino-1-phenylbutan-2-ol]	0.04 µg/mL (≈ 0.0765 µM)	> 64 µg/mL	0.0312 µg/mL	0.16 µg/mL (≈ 0.306 µM)	> 32 µg/mL
